Laboratory results reported in patent US20140227191A1, “L-GLUTAMIC ACID AND L-GLUTAMINE DERIVATIVE (III), USE THEREOF AND METHOD FOR OBTAINING THEM” (BAYER SCHERING PHARMA AKTIENGESELLSCHAFT, priority 2008, published 2014).
Where a name gives a salt, the structure may show the parent alone.

Test system: A549 cells (human Non Small Cell Lung Cancer)
Test: cytotoxicity assay with A549 cells using standard Alamar Blue Assay
Settings: for cell vitality: A549 cells, 48 h incubation, Alamar Blue, versus control cells, L-Glutamate at 2 mM
Description: A Dulbecco's modified Eagle's Medium (Sigma D0422), supplemented with Glutamine and 10% foetal calf serum (FCS) were used as incubation buffer. The cells were incubated for 48 h with test compounds and investigated according to manufacturer's protocol.
Afterwards, cell vitality was measured with the Alamar Blue assay kit as described above.

## N[C@@H](CCC(=O)O)C(=O)O [L-Glutamate, reference compound]
  cell vitality: no differences in cell vitality

## N[C@@H](C[C@H](Cc1cc(C(F)(F)F)ccc1F)C(=O)O)C(=O)O [Example 5, Neutral sodium salt of (2S,4S)-2-Amino-4-(2-fluoro-5-trifluoromethyl-benzyl)-pentane dioic acid]
  cell vitality: strong decrease of the cell vitality

## N[C@@H](C[C@H](CCCF)C(=O)O)C(=O)O [Example 1]
  cell vitality: strong decrease of the cell vitality
Homo sapiens, A549, read-out: EC50 (cell vitality)
  EC50: ~38 µM
